# Key:
# [1] = Acute Dermal Toxicity Test; type: in vivo, ICR mice; settings: mouse, in vivo, topical or ocular, acute dermal, ICR mice, Litchfield-Wilcoxon's method; read-out: LD50 (lethal dose)
# Experimental: (§1) 4 ml/kg of AsA-APPA of Preparation Ex. 2 was diluted with physiological saline to give 50% of test sample. This test sample was percutaneously administrated into the ten(10) of ICR mice(five males and five females) weighing 20~33 g (administrated amount of AsA-APPA: 2 g/kgweight). As a control, 4 ml/kg of physiological saline was percutaneously administrated into the ten(10) of ICR mice(five males and five females) weighing 20~33 g (administrated amount of AsA-APPA: 0 g/kgweight).
# (§2) Before about 24 hours, the back of each mouce was depilated in a size of 1.5×1.5 cm^2. Then, each depilated site was covered with a gauze of 1×1 cm^2 applied with one of the test and control samples, and fixed using an non-irritative tape, for 24 hours.
# (§3) At that day, general appearance was observed every hour for 6 hours. And, from the next day to 14 days, every day, were observed general appearance(clinical symptoms), toxic symptoms, death and the like. Further, change of weights was measured at 1, 3, 7 and 14 days.
# (§4) Any of the mice dead during observation period were immediately subjected to autopsy, and the survival mice were subjected to autopsy after observation period.
# ICR mice = test: Acute Dermal Toxicity Test; type: in vivo
# Experimental: as §1, §2, §3, §4
# [2] = system: skin of New Zealand White male rabbits; test: Primary Skin Irritation Test; type: in vivo; settings: rabbit
# Experimental: Test was carried out for twelve(12) of New Zealand White male rabbits whose backs were depilated before 24 hours. And, 0.1 ml of AsA-APPA of Preparation Ex. 2 was diluted with physiological saline to give 50% of test sample.
# The test sample was applied to two sites (2.5 cm×2.5 cm) of the right back (amount of AsA-APPA per site: 0.5 ml). As a control, two sites (2.5 cm×2.5 cm) of the left back were treated with 1.0 ml of physiological saline. Each tested site was covered with a gauze, which was fixed using an non-irritative tape. 24 Hours later, the tested sites were washed with physiological saline.
smiles,measurement,setting,value
"NCCCOP(=O)(O)OC1=C(O)[C@@H]([C@@H](O)CO)OC1=O [AsA-APPA, 2-(3-aminopropanephosphoric acid)-L-ascorbate]",LD50 at 336 h,[1],2000 mg/kg
same,Evaluation,ICR mice; Acute dermal toxicity test,Innoxious
same,LD50 (lethal dose),"ICR mice; acute dermal, ICR mice, Litchfield-Wilcoxon's method, 20160 min",> 2000 mg/kg
same,autopsy findings,"ICR mice; percutaneous, 2 g/kg",no abnormal symptom was observed
same,weight changes in comparison to the control,"ICR mice; percutaneous, 2 g/kg, 1, 3, 7 and 14 days",no significant difference
same,death,"ICR mice; percutaneous, 2 g/kg, 14 days",no dead mice
same,Evaluation of primary skin irritation,[2],non-irritative or very low-irritative
same,skin abnormality such as erythema and edema,[2]; 24 or 72 hours after removing the patches,no skin abnormality such as erythema and edema was observed
same,Draize's PII (Primary Irritation Index),[2]; due to erythema,0.13
